Measured values reported in patent publication US11261498B2, “Methods for diagnosing and treating cancer” (priority 2011, dated 2022).

Columns and labels:
[1] = tested on: NSCLC cell lines; assay: Erlotinib sensitivity (IC50, Celltiter-Glo cell viability) of NSCLC cell lines versus ERBB2 methylation; type: cell-based; conditions: in vitro, 72 hrs, 3 nM TGFα, IC50 values only in FIG. 5
Description: After 72 hrs, cell viability was measured using the Celltiter-Glo Luminescent Cell Viability Assay (Promega).

[2] = tested on: NSCLC; conditions: phase III, first-line, in combination with standard chemotherapy; cited from earlier work
[3] = tested on: pancreatic cancer; conditions: phase III, first-line, in combination with gemcitabine; cited from earlier work
[4] = tested on: advanced, treatment-refractory NSCLC; conditions: phase III, monotherapy, patients with advanced; cited from earlier work

Compound | correlation of ERBB2 hypomethylation with erlotinib sensitivity [1] | survival [2] | survival [3] | disease progression [4] | survival [4] | worsening of lung cancer-related symptoms [4]
C#Cc1cccc(Nc2ncnc3cc(OCCOC)c(OCCOC)cc23)c1 [erlotinib, [6,7-bis(2-methoxyethoxy)-4-quinazolin-4-yl]-(3-ethynylphenyl) amine] | strongly correlated | did not improve survival | did improve survival | delayed disease progression | significantly prolonged survival | delayed worsening of lung cancer-related symptoms
COc1cc2ncnc(Nc3ccc(F)c(Cl)c3)c2cc1OCCCN1CCOCC1 [gefitinib] | – | did not improve survival | – | – | – | –
